# Read-outs that look alike come from different tables or passages of the source.
# Experiments:
# Mia Paca-2 cells [1] = assay: MTT cell viability assay in Mia Paca-2 cells; assay type: cell-based; conditions: Homo sapiens, MIA PaCa-2; MTT assay, 72 h incubation, mean ± SD; read-out: IC50 Mia Paca-2
# Description: (§1) The MTT assay was used to assess the effect of the compounds on cell viability. For this purpose, A375 (1500 cells per well), BJ (10 000 cells per well), Caco-2 (4000 cells per well), HCT116 (3000 cells per well), Mia Paca-2 (2000 cells per well), SW480 (6000 cells per well), and SW620 (8000 cells per well) cells were seeded in 96-well plates and incubated for 24 h. Subsequently, the culture medium was switched with a new medium containing DMSO (control) or the compound at a specified concentration. Following a 72 h incubation period, the supernatant was aspirated, and 100 μL of a mixture (1 : 1) of filtered MTT solution (1 mg per mL PBS) and FBS-free medium was added. The plates were then incubated for 1 h at 37 °C. After this time, the supernatant was aspirated, and the formazan crystals were dissolved in 100 μL of DMSO in each well. Relative cell viability was calculated by measuring absorbance at 570 nm using a Benchmark Plus Microplate Reader (Bio-Rad Laboratories, Hercules, CA, USA). Results are presented as the mean ± standard deviation (SD) of IC50 values, determined by nonlinear regression analysis of dose–response curves (log(inhibitor) vs. response with variable slope (four parameters)) using GraphPad Prism 9 software (GraphPad Software, San Diego, CA, USA).
# Caco-2 cells = assay: MTT cell viability assay in Caco-2 cells; assay type: cell-based; conditions: Homo sapiens, Caco-2; MTT assay, 72 h incubation, mean ± SD; read-out: IC50 Caco-2
# Description: as §1
# HCT116 cells [2] = assay: MTT cell viability assay in HCT116 cells; assay type: cell-based; conditions: for IC50: Homo sapiens, read-out: IC50 HCT116
# Description: The MTT assay was used to assess the effect of the compounds on cell viability. […] Subsequently, the culture medium was switched with a new medium containing DMSO (control) or the compound at a specified concentration. […] The plates were then incubated for 1 h at 37 °C. After this time, the supernatant was aspirated, and the formazan crystals were dissolved in 100 μL of DMSO in each well. Relative cell viability was calculated by measuring absorbance at 570 nm using a Benchmark Plus Microplate Reader (Bio-Rad Laboratories, Hercules, CA, USA).
# SW620 cells [3] = assay: MTT cell viability assay in SW620 cells; assay type: cell-based; conditions: Homo sapiens, SW-620; MTT assay, 72 h incubation, mean ± SD; read-out: IC50 SW620
# Description: as §1
# A375 cells [4] = system: A375 cells; design: method as in PMID 23229057; conditions: MTT assay, from the literature, ref [38]; cited from earlier work
# Mia Paca-2 cells [5] = system: Mia Paca-2 cells; design: method as in PMID 18007390; conditions: MTT assay, from the literature, ref [37]; cited from earlier work
# SW620 cells [6] = system: SW620 cells; design: method as in PMID 31909511; conditions: MTT assay, previously determined by the research team, ref [35]; cited from earlier work
# HCT116 cells [7] = conditions: MTT assay, 72 h; previously determined by the research team, ref [26]; cited from earlier work
# BJ cells = system: BJ cells; design: method as in doi:10.1039/C5RA19120C; conditions: MTT assay, previously determined by the research team, ref [39]; read-out: IC50 BJ (non-tumoral); cited from earlier work
# SW480 cells = assay: MTT cell viability assay in SW480 cells; assay type: cell-based
# Description: as §1
# A375 cells [8] = assay: MTT cell viability assay in A375 cells; assay type: cell-based; conditions: Homo sapiens, A-375; MTT assay, 72 h incubation, mean ± SD; read-out: IC50 A375
# Description: as §1
# [9] = HCT-116, MTT assay, 72 h incubation, mean ± SD
# [10] = SW480 cells, ratio of IC50 values
smiles,measurement,setting,value
"CC(C)c1cc2c(c(O)c1O)[C@@]1(C(=O)O)CCCC(C)(C)[C@@H]1CC2 [CA 1, Carnosic acid]",IC50,Mia Paca-2 cells [1],21 ± 1 µM
same,IC50,Caco-2 cells,34 ± 2 µM
same,IC50,HCT116 cells [2]; [9],42 ± 4 µM
same,IC50,SW620 cells [3],18 ± 2 µM
N.N.[Cl][Pt][Cl] [Cisplatin],IC50,A375 cells [4],3 ± 1 µM
same,IC50,Mia Paca-2 cells [5],5 ± 1 µM
same,IC50,SW620 cells [6],1.4 ± 0.5 µM
same,IC50,HCT116 cells [7],21 ± 1 µM
same,IC50,BJ cells,10 ± 2 µM
"CC(=O)Oc1c(C(C)C)cc2c(c1OC(C)=O)[C@@]1(C(=O)O)CCCC(C)(C)[C@@H]1CC2 [Compound 2, (4aR,10aS)-5,6-Bis(acetyloxy)-1,1-dimethyl-7-(propan-2-yl)1,3,4,9,10,10a-hexahydrophenanthrene-4a(2H)-carboxylic acid]",IC50,HCT116 cells [2]; [9],44 ± 4 µM
"CCOC(=O)[C@]12CCCC(C)(C)[C@@H]1CCc1cc(C(C)C)c(OC(C)=O)c(OC(C)=O)c12 [Compound 4, Ethyl(4aR,10aS)-5,6-bis(acetyloxy)-1,1-dimethyl-7-(propan-2-yl)-1,3,4,9,10,10a-hexahydrophenanthrene-4a(2H)-carboxylate]",IC50,"HCT116 cells [2]; HCT-116, 72 h",25 ± 2 µM
"CCCCOC(=O)[C@]12CCCC(C)(C)[C@@H]1CCc1cc(C(C)C)c(OC(C)=O)c(OC(C)=O)c12 [Compound 5, Butyl(4aR,10aS)-5,6-bis(acetyloxy)-1,1-dimethyl-7-(propan-2-yl)-1,3,4,9,10,10a-hexahydrophenanthrene-4a(2H)-carboxylate]",IC50,HCT116 cells [2]; [9],26 ± 1 µM
"COC(=O)[C@]12CCCC(C)(C)[C@@H]1CC(=O)c1cc(C(C)C)c(OC(C)=O)c(OC(C)=O)c12 [Compound 6, Methyl(4aR,10aS)-5,6-bis(acetyloxy)-1,1-dimethyl-9-oxo-7-(propan-2-yl)-1,3,4,9,10,10a-hexahydrophenanthrene-4a(2H)-carboxylate]",IC50,HCT116 cells [2]; [9],36 ± 1 µM
"CCOC(=O)[C@]12CCCC(C)(C)[C@@H]1CC(=O)c1cc(C(C)C)c(OC(C)=O)c(OC(C)=O)c12 [Compound 7, Ethyl(4aR,10aS)-5,6-bis(acetyloxy)-1,1-dimethyl-9-oxo-7-(propan-2-yl)-1,3,4,9,10,10a-hexahydrophenanthrene-4a(2H)-carboxylate]",IC50,HCT116 cells [2]; [9],31 ± 3 µM
"CCCCOC(=O)[C@]12CCCC(C)(C)[C@@H]1CC(=O)c1cc(C(C)C)c(OC(C)=O)c(OC(C)=O)c12 [Compound 8, Butyl(4aR,10aS)-5,6-bis(acetyloxy)-1,1-dimethyl-9-oxo-7-(propan-2-yl)-1,3,4,9,10,10a-hexahydrophenanthrene-4a(2H)-carboxylate]",IC50,"SW480 cells; Homo sapiens, SW480, MTT assay, 72 h incubation, mean ± SD, read-out: IC50 SW480",6.8 ± 0.6 µM
same,fold more active than cisplatin,SW480 cells; [10],2.2 fold
same,fold more potent than CA 1,SW480 cells; [10],3.2 fold
same,IC50,Mia Paca-2 cells [1],12 ± 1 µM
same,IC50,Caco-2 cells,12.7 ± 0.3 µM
same,fold more active than cisplatin,"HCT116 cells [2]; HCT116 cells, ratio of IC50 values",1.4 fold
same,IC50,HCT116 cells [2]; [9],15.1 ± 0.7 µM
same,IC50,SW620 cells [3],11 ± 1 µM
same,IC50,A375 cells [8],8.1 ± 0.5 µM
"COC(=O)[C@]12CCCC(C)(C)[C@@H]1CC(O)c1cc(C(C)C)c(OC(C)=O)c(OC(C)=O)c12 (stereo partly drawn) [Compound 9, Methyl(4aR,10aS)-5,6-bis(acetyloxy)-9-hydroxy-1,1-dimethyl-7-(propan-2-yl)-1,3,4,9,10,10a-hexahydrophenanthrene-4a(2H)-carboxylate]",IC50,HCT116 cells [2]; [9],37 ± 3 µM
"CCOC(=O)[C@]12CCCC(C)(C)[C@@H]1CC(O)c1cc(C(C)C)c(OC(C)=O)c(OC(C)=O)c12 (stereo partly drawn) [Compound 10, Ethyl(4aR,10aS)-5,6-bis(acetyloxy)-9-hydroxy-1,1-dimethyl-7-(propan-2-yl)-1,3,4,9,10,10a-hexahydrophenanthrene-4a(2H)-carboxylate]",IC50,HCT116 cells [2]; [9],34 ± 3 µM
"CCCCOC(=O)[C@]12CCCC(C)(C)[C@@H]1CC(O)c1cc(C(C)C)c(OC(C)=O)c(OC(C)=O)c12 (stereo partly drawn) [Compound 11, Butyl(4aR,10aS)-5,6-bis(acetyloxy)-9-hydroxy-1,1-dimethyl-7-(propan-2-yl)-1,3,4,9,10,10a-hexahydrophenanthrene-4a(2H)-carboxylate]",IC50,HCT116 cells [2]; [9],27 ± 4 µM
"CC(=O)Oc1c(C(C)C)cc2c(c1OC(C)=O)[C@@]1(N=C=O)CCCC(C)(C)[C@@H]1CC2 [Compound 14, (4bR,8aS)-4b-Isocyanato-8,8-dimethyl-2-(propan-2-yl)-4b,5,6,7,8,8a,9,10-octahydrophenanthrene-3,4-diyl diacetate]",IC50,"HCT116 cells [2]; HCT-116, 72 h",28 ± 3 µM
"COC(=O)N[C@]12CCCC(C)(C)[C@@H]1CCc1cc(C(C)C)c(OC(C)=O)c(OC(C)=O)c12 [Compound 15, (4bR,8aS)-4b-[(Methoxycarbonyl)amino]-8,8-dimethyl-2-(propan-2-yl)-4b,5,6,7,8,8a,9,10-octahydrophenanthrene-3,4-diyl diacetate]",IC50,"HCT116 cells [2]; HCT-116, 72 h",55 ± 5 µM
"CCOC(=O)N[C@]12CCCC(C)(C)[C@@H]1CCc1cc(C(C)C)c(OC(C)=O)c(OC(C)=O)c12 [Compound 16, (4bR,8aS)-4b-[(Ethoxycarbonyl)amino]-8,8-dimethyl-2-(propan-2-yl)-4b,5,6,7,8,8a,9,10-octahydrophenanthrene-3,4-diyl diacetate]",IC50,"HCT116 cells [2]; HCT-116, 72 h",37 ± 2 µM
"COC(=O)N[C@]12CCCC(C)(C)[C@@H]1CC(=O)c1cc(C(C)C)c(OC(C)=O)c(OC(C)=O)c12 [Compound 18, (4bR,8aS)-4b-[(Methoxycarbonyl)amino]-8,8-dimethyl-10-oxo-2-(propan-2-yl)-4b,5,6,7,8,8a,9,10-octahydrophenanthrene-3,4-diyl diacetate]",IC50,"HCT116 cells [2]; HCT-116, 72 h",> 50 µM
"CCOC(=O)N[C@]12CCCC(C)(C)[C@@H]1CC(=O)c1cc(C(C)C)c(OC(C)=O)c(OC(C)=O)c12 [Compound 19, (4bR,8aS)-4b-[(Ethoxycarbonyl)amino]-8,8-dimethyl-10-oxo-2-(propan-2-yl)-4b,5,6,7,8,8a,9,10-octahydrophenanthrene-3,4-diyl diacetate]",IC50,"HCT116 cells [2]; HCT-116, 72 h",48.2 ± 0.1 µM

# From paper PMC12498136, “Synthesis and biological evaluation of novel carnosic acid derivatives with anticancer activity” (RSC Advances, 2025)
